Measured values from patent US12240844B2 (Voronoi, Inc., priority 2019, dated 2025).
pIC50: −log10 of the molar value.

Experiments:
human GST-CLK1 (129-end) = molecular target: T1, human GST-CLK1 (129-end) (Homo sapiens, UniProt P49759); test: GST-CLK1 enzyme inhibition, ADP-Glo kinase assay; type: biochemical; settings: ATP 10 uM
T1 construct: purified human GST-CLK1 (129-end, Signalchem) enzyme; GST; purchased Signalchem
Summary of the method: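 ADP formation was read by ADP-Glo luminescence after 1 h at 25° C with 3 ng human GST-CLK1 (129-end), substrate and 10 uM ATP in Tris pH 7.4 buffer containing MgCl2, BSA and DTT. Inhibition relative to untreated solvent control gave IC50 (nM), run in triplicate.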

MDA-MB-231 cell line = test: MDA-MB-231 cancer cell proliferation inhibition (Cell Titer-Glo); type: cell-based; settings: Homo sapiens, MDA-MB-231 triple-negative breast cancer cell line, 72 hours
Summary of the method: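 GI50 comes from CellTiter-Glo luminescence, read 10 min after reagent addition at RT, following 72 h compound treatment. Eleven concentrations were used (⅓ steps, highest 10 μM final) on 2000 cells/well. MDA-MB-231 and MDA-MB-468 were grown in DMEM, SHP-77 in RPMI.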

LRRK2 = LRRK2 (Homo sapiens, UniProt Q5S007); test: LRRK2 enzyme inhibition, ADP-Glo kinase assay; type: biochemical; design: purchased Invitrogen PR8604B
LRRK2, sequence (Q5S007 970-2527 limits assumed): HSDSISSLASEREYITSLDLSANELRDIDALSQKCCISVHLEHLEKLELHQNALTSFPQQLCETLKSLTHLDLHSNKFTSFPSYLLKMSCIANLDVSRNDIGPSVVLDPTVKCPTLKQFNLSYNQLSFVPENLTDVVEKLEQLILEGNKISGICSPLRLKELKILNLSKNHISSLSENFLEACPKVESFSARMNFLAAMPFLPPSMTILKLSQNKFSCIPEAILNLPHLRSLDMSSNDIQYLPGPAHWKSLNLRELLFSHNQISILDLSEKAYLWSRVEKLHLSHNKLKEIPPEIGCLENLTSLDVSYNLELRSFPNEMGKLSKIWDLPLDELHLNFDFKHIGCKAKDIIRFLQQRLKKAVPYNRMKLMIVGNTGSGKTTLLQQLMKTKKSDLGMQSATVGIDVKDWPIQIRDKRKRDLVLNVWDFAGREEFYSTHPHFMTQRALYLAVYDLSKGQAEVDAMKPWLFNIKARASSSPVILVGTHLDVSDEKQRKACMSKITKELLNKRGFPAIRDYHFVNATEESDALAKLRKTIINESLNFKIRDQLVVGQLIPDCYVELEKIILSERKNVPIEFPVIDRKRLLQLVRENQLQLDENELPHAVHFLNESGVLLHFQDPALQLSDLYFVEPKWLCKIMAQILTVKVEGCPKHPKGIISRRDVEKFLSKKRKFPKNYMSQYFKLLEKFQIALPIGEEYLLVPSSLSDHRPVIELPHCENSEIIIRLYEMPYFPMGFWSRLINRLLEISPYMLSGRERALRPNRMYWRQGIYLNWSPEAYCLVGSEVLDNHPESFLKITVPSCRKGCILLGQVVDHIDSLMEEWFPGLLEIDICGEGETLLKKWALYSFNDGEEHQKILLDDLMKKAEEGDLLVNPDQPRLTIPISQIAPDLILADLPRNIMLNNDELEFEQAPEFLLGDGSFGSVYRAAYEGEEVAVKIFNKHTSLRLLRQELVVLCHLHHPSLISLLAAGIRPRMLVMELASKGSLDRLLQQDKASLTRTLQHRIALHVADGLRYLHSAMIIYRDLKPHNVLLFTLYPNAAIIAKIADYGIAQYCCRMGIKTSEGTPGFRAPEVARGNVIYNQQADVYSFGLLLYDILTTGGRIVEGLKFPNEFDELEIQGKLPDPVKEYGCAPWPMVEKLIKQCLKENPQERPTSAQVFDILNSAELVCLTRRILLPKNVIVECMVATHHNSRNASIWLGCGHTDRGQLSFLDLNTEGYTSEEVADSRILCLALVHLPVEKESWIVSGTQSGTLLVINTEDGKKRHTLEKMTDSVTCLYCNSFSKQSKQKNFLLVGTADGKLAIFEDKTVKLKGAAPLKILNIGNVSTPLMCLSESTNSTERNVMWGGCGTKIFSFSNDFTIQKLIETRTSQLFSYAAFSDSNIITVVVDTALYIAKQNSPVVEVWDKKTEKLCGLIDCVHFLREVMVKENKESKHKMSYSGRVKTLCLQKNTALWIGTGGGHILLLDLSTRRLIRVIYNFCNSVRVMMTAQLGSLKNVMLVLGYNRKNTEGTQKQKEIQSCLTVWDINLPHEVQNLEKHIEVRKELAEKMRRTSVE
Summary of the method: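 ADP-Glo luminescence read after 2 h at 25° C, 10 μM ATP, 25 ng purified human LRRK2 and […] substrate in Tris-HCl pH7.4 buffer with MgCl2, BSA, DTT. Twelve final concentrations, 50 μM down to 0.000001024 μM; IC50 (nM) from inhibition relative to untreated solvent control.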

[1] = molecular target: T2, human GST-DYRK1A (full length) (Homo sapiens, UniProt Q13627); test: GST-DYRK1A enzyme inhibition, ADP-Glo kinase assay; type: biochemical; settings: read-out: DYRK1 IC50
T2 construct: purified human GST-DYRK1A (full length, Thermo scientifics) enzyme; GST; purchased Thermo scientifics
Summary of the method: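 ADP-Glo luminescence quantified kinase activity after a 1 h, 25° C reaction of 10 ng full-length GST-tagged human DYRK1A, substrate and 10 uM ATP in Tris-HCl buffer pH 7.4 with MgCl2, BSA and DTT. Triplicate IC50 values (nM) calculated relative to untreated solvent control.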

T1 sequence (P49759 129-484 limits assumed): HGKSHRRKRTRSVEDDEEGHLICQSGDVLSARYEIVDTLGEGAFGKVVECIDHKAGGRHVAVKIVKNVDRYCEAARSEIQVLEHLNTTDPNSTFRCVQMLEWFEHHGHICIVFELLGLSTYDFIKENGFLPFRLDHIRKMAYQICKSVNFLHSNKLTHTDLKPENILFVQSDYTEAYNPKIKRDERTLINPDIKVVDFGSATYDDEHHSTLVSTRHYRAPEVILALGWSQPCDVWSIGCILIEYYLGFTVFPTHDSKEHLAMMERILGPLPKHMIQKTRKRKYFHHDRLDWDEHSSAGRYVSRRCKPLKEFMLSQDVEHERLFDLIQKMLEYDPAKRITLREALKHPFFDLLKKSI

Row | SMILES | pIC50 (human GST-CLK1 (129-end)) | GI50 (MDA-MB-231 cell line) | pIC50 (LRRK2) | pIC50 [1]
1 | COCCNc1cc(Nc2ccc(P3(=O)CCN(C4CC4)CC3)cc2OC)nc2[nH]cc(C(F)(F)F)c12 [Example 207, 1-cyclopropyl-4-(3-methoxy-4-((4-((2-methoxyethyl)amino)-3-(trifluoromethyl)-1H-pyrrolo[2,3-b]pyridin-6-yl)amino)phenyl)-1,4-azaphosphinane 4-oxide] | 6.52 to 7.00 | 301 to 1000 nM | 6.52 to 7.00 | > 7.00
2 | CNc1cc(Nc2ccc(C(=O)N3CCC(N4CCOCC4)CC3)c3c2OCC3)nc2[nH]cc(C(F)(F)F)c12 [Example 234, (7-((4-(methylamino)-3-(trifluoromethyl)-1H-pyrrolo[2,3-b]pyridin-6-yl)amino)-2,3-dihydrobenzofuran-4-yl)(4-morpholinopiperidin-1-yl)methanone] | > 7.00 | 301 to 1000 nM | > 7.00 | > 7.00
3 | CNc1cc(Nc2ccc(P3(=O)CCN(C4CC4)CC3)cc2OC)nc2[nH]cc(C#N)c12 [Example 146, 6-((4-(1-cyclopropyl-4-oxido-1,4-azaphosphinan-4-yl)-2-methoxyphenyl)amino)-4-(methylamino)-1H-pyrrolo[2,3-b]pyridine-3-carbonitrile] | 6.00 to 6.52 | 301 to 1000 nM | > 7.00 | 6.00 to 6.52
4 | CCNc1cc(Nc2ccc(P3(=O)CCN(C4CCOCC4)CC3)cc2OC)nc2[nH]cc(C(F)(F)F)c12 [Example 94, 4-(4-((4-(ethylamino)-3-(trifluoromethyl)-1H-pyrrolo[2,3-b]pyridin-6-yl)amino)-3-methoxyphenyl)-1-(tetrahydro-2H-pyran-4-yl)-1,4-azaphosphinane 4-oxide] | 6.52 to 7.00 | 301 to 1000 nM | 6.52 to 7.00 | 6.52 to 7.00
5 | CCNc1cc(Nc2ccc(C(=O)N3CCC(N4CCOCC4)CC3)c3c2OCO3)nc2[nH]cc(C(F)(F)F)c12 [Example 37, (7-((4-(ethylamino)-3-(trifluoromethyl)-1H-pyrrolo[2,3-b]pyridin-6-yl)amino)benzo[d][1,3]dioxol-4-yl)(4-morpholinopiperidin-1-yl)methanone] | > 7.00 | 301 to 1000 nM | > 7.00 | > 7.00
6 | CNc1cc(Nc2ccc(S(=O)(=O)N3CCC(N4CCOCC4)CC3)c3c2OCCO3)nc2[nH]cc(C(F)(F)F)c12 [Example 233, N^4-methyl-N^6-(8-((4-morpholinopiperidin-1-yl)sulfonyl)-2,3-dihydrobenzo [b] [1,4]dioxin-5-yl)-3-(trifluoromethyl)-1H-pyrrolo[2,3-b]pyridine-4,6-diamine] | > 7.00 | 301 to 1000 nM | > 7.00 | 6.52 to 7.00
7 | CNc1cc(Nc2ccc(P3(=O)CCN(C4CC4)CC3)cc2OC)nc2[nH]cc(C(F)(F)F)c12 [Example 205, 1-cyclopropyl-4-(3-methoxy-4-((4-(methylamino)-3-(trifluoromethyl)-1H-pyrrolo[2,3-b]pyridin-6-yl)amino)phenyl)-1,4-azaphosphinane 4-oxide] | > 7.00 | 301 to 1000 nM | 6.52 to 7.00 | > 7.00
8 | CNc1cc(Nc2ccc(C(=O)N3CC[C@H](N4CCOCC4)C3)c3c2OCC3)nc2[nH]cc(C(F)(F)F)c12 [Example 217, (S)-(7-((4-(methylamino)-3-(trifluoromethyl)-1H-pyrrolo[2,3-b]pyridin-6-yl)amino)-2,3-dihydrobenzofuran-4-yl)(3-morpholinopyrrolidin-1-yl)methanone] | > 7.00 | 301 to 1000 nM | > 7.00 | > 7.00
9 | COc1cc(S(=O)(=O)N2CCOCC2)ccc1Nc1cc(C2CC2)c2c(C#N)c[nH]c2n1 [Example 227, 4-cyclopropyl-6-((2-methoxy-4-(morpholinosulfonyl)phenyl)amino)-1H-pyrrolo[2,3-b]pyridine-3-carbonitrile] | 6.00 to 6.52 | 301 to 1000 nM | > 7.00 | 6.00 to 6.52
10 | O=C(c1ccc(Nc2cc(C3CC3)c3c(C(F)(F)F)c[nH]c3n2)c2c1OCCO2)N1CCOCC1 [Example 220, (8-((4-cyclopropyl-3-(trifluoromethyl)-1H-pyrrolo[2,3-b]pyridin-6-yl)amino)-2,3-dihydrobenzo[b] [1,4]dioxin-5-yl)(morpholino) methanone] | 6.00 to 6.52 | 301 to 1000 nM | 6.00 to 6.52 | 6.00 to 6.52
11 | CCNc1cc(Nc2ccc(C(=O)N3CCC(N4CCOCC4)CC3)c3c2OCC3)nc2[nH]cc(C(F)(F)F)c12 [Example 90, (7-((4-(ethylamino)-3-(trifluoromethyl)-1H-pyrrolo[2,3-b]pyridin-6-yl)amino)-2,3-dihydrobenzofuran-4-yl)(4-morpholinopiperidin-1-yl)methanone] | > 7.00 | 301 to 1000 nM | > 7.00 | > 7.00

The remaining lines, values ahead:

Row | pIC50 (human GST-CLK1 (129-end)) | GI50 (MDA-MB-231 cell line) | pIC50 (LRRK2) | pIC50 [1] | SMILES
12 | > 7.00 | 301 to 1000 nM | > 7.00 | 6.52 to 7.00 | COCCNc1cc(Nc2ccc(S(=O)(=O)N3CCC(N4CCOCC4)CC3)c3c2OCCO3)nc2[nH]cc(C(F)(F)F)c12 [Example 97, N^4-(2-methoxyethyl)-N^6-(8-((4-morpholonopiperidin-1-yl)sulfonyl)-2,3-dihydrobenzo[b] [1,4]dioxin-5-yl)-3-(trifluoromethyl)-1H-pyrrolo[2,3-b]pyridine-4,6-diamine]
13 | > 7.00 | 301 to 1000 nM | > 7.00 | > 7.00 | COCCNc1cc(Nc2ccc(C(=O)N3CCC(N4CCOCC4)CC3)c3c2OCC3)nc2[nH]cc(C(F)(F)F)c12 [Example 55, (7-((4-((2-methoxyethyl)amino)-3-(trifluoromethyl)-1H-pyrrolo[2,3-b]pyridin-6-yl)amino)-2,3-dihydrobenzofuran-4-yl)(4-morpholinopiperidin-1-yl)methanone]
14 | > 7.00 | 301 to 1000 nM | > 7.00 | > 7.00 | CNc1cc(Nc2ccc(C(=O)N3CC[C@@H](N4CCOCC4)C3)c3c2OCC3)nc2[nH]cc(C(F)(F)F)c12 [Example 214, (R)-(7-((4-(methylamino)-3-(trifluoromethyl)-1H-pyrrolo[2,3-b]pyridin-6-yl)amino)-2,3-dihydrobenzofuran-4-yl)(3-morpholinopyrrolidin-1-yl)methanone]
15 | > 7.00 | 301 to 1000 nM | > 7.00 | > 7.00 | CCNc1cc(Nc2ccc(C(=O)N3CCN(C4COC4)CC3)c3c2OCCO3)nc2[nH]cc(C(F)(F)F)c12 [Example 173, (8-((4-(ethylamino)-3-(trifluoromethyl)-1H-pyrrolo[2,3-b]pyridin-6-yl)amino)-2,3-dihydrobenzo[b] [1,4]dioxin-5-yl)(4-(oxetan-3-yl)piperazin-1-yl)methanone]
16 | > 7.00 | 301 to 1000 nM | > 7.00 | > 7.00 | O=C(c1ccc(Nc2cc(NC3CC3)c3c(C(F)(F)F)c[nH]c3n2)c2c1CCO2)N1CCC(N2CCOCC2)CC1 [Example 92, (7-((4-(cyclopropylamino)-3-(trifluoromethyl)-1H-pyrrolo[2,3-b]pyridin-6-yl)amino)-2,3-dihydrobenzofuran-4-yl)(4-morpholinopiperidin-1-yl)methanone]
17 | > 7.00 | 301 to 1000 nM | > 7.00 | > 7.00 | CNc1cc(Nc2ccc(C(=O)N3CCC(N4C[C@@H]5C[C@H]4CO5)CC3)c3c2OCC3)nc2[nH]cc(C(F)(F)F)c12 [Example 241, (4-((1S,4S)-2-oxa-5-azabicyclo[2.2.1]heptan-5-yl)piperidin-1-yl)(7-((4-(methylamino)-3-(trifluoromethyl)-1H-pyrrolo[2,3-b]pyridin-6-yl)amino)-2,3-dihydrobenzofuran-4-yl)methanone]
18 | > 7.00 | 301 to 1000 nM | > 7.00 | > 7.00 | CCNc1cc(Nc2ccc(C(=O)N3CCC(N4C[C@@H]5C[C@H]4CO5)CC3)c3c2OCC3)nc2[nH]cc(C(F)(F)F)c12 [Example 105, (4-((1S,4S)-2-oxa-5-azabicyclo[2.2.1]heptan-5-yl)piperidin-1-yl)(7-((4-(ethylamino)-3-(trifluoromethyl)-1H-pyrrolo[2,3-b]pyridin-6-yl)amino)-2,3-dihydrobenzofuran-4-yl)methanone]
19 | > 7.00 | 301 to 1000 nM | > 7.00 | > 7.00 | COc1cc(S(=O)(=O)N2CCC(N3CCOCC3)CC2)ccc1Nc1cc(NCCS(C)(=O)=O)c2c(C(F)(F)F)c[nH]c2n1 [Example 194, N^6-(2-methoxy-4-((4-morpholinopiperidin-1-yl)sulfonyl)phenyl)-N^4-(2-(methylsulfonyl)ethyl)-3-(trifluoromethyl)-1H-pyrrolo[2,3-b]pyridine-4,6-diamine]
